In brackets after ≈: the same amount, converted by molar mass.
Key:
[1] = Solubility test in first and second liquid of the Japanese Pharmacopoeia; settings: Solubility
Method: The solubilities of the substance under test in the first liquid (JP1, pH=1.2) of the Japanese Pharmacopoeia and the second liquid (JP2, pH=6.8) of the Japanese Pharmacopoeia, were evaluated.

hα4 and β1 integrins = target: T1, hα4 and β1 integrins (Homo sapiens, UniProt P05556+P13612); assay: In vitro inhibition of binding between CHO cells expressing hα4 and β1 integrins and Eu3+-hVCAM-1 D1D7-IgG; settings: for Ki: CHO cells expressing hα4 and β1 integrins, Eu3+-hVCAM-1 D1D7-IgG ligand, without HSA; for IC50: in the presence of 3% human serum albumin (HSA final concentration 3%)
T1 construct: expressed in transfected cells; host or cells: CHO cells
How it was run: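 Transfected CHO cells, cultured 2 days, were incubated with compound and Eu³⁺-hVCAM-1 D1D7-IgG (diluted to 2 nM) for 1 h at room temperature. Buffer was 25 mM HEPES pH 7.5 with 1 mM Ca²⁺, 1 mM Mg²⁺, 4 mM Mn²⁺ and 0.1% BSA, ±3% HSA final. Cells were washed at 4 °C and read by DELFIA time-resolved fluorescence; Ki was derived from IC50 using the Scatchard Kd.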

[2] = first liquid of the Japanese Pharmacopoeia (JP1), pH 1.2, simulated gastric fluid, First liquid of Japanese Pharmacopoeia (μg/mL), JP1, pH=1.2
[3] = second liquid of the Japanese Pharmacopoeia (JP2), pH 6.8, aqueous buffer, Second liquid of Japanese Pharmacopoeia (μg/mL), JP2, pH=6.8

T1 sequence (P13612 34-1032): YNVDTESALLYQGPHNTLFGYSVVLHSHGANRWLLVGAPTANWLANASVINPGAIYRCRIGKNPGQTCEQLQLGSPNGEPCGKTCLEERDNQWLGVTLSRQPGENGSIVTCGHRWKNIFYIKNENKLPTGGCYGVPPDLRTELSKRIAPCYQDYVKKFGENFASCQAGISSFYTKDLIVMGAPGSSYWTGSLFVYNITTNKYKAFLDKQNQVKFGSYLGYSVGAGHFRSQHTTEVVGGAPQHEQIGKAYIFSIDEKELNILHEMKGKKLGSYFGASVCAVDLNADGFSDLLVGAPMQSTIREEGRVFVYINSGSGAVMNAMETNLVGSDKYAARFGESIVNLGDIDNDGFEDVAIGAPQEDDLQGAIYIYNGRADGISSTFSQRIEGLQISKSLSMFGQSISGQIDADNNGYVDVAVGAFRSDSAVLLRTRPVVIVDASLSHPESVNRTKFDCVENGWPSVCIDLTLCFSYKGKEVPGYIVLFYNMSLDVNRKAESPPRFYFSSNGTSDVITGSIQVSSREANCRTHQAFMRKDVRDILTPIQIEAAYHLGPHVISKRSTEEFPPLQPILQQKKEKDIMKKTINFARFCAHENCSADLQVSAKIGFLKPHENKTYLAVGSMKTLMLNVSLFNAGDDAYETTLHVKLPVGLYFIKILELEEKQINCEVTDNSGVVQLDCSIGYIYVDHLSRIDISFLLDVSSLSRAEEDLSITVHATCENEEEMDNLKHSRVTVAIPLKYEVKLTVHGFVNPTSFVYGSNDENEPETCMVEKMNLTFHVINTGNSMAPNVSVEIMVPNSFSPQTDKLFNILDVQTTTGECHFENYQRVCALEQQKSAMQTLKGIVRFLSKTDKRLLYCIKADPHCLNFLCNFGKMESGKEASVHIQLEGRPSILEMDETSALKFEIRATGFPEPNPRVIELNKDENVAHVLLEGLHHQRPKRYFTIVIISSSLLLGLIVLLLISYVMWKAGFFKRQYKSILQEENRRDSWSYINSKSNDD
T1 sequence (P05556 21-798): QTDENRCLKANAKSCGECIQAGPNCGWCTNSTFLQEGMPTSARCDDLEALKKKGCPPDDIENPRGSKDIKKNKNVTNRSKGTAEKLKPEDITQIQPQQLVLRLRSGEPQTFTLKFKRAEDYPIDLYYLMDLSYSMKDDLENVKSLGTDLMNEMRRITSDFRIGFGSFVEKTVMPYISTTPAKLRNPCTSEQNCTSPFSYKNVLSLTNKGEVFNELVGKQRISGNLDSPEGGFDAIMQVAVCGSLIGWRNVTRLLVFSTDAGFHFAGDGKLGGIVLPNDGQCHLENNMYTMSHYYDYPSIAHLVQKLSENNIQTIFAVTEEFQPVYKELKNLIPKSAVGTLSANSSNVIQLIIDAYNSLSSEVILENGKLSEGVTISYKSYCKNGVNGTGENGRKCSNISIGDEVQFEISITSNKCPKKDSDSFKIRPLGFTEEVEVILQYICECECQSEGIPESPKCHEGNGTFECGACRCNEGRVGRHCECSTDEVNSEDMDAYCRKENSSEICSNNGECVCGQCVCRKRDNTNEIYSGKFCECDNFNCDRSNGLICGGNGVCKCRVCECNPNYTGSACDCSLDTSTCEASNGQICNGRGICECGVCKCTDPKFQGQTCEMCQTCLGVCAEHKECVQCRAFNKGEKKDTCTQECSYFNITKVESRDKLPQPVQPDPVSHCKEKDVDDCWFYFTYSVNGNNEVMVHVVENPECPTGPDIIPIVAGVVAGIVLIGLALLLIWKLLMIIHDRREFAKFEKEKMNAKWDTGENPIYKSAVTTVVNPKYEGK

| SMILES | solubility [1, 2] | solubility [1, 3] | Ki (hα4 and β1 integrins) | IC50 (hα4 and β1 integrins) |
| --- | --- | --- | --- | --- |
| O=C(Nc1cc(F)c(CC(=O)N2C[C@@H](N3CC(CN4CCOCC4)C3)C[C@H]2CO[C@H]2CC[C@H](C(=O)O)CC2)cc1Cl)c1coc2ccccc12 [Example 30, Trans-4-[1-[[4-[(benzo[b]furan-3-ylcarbonyl)amino]-5-chloro-2-fluorophenyl]acetyl]-(4S)-[3-(4-morpholinylmethyl)azetidin-1-yl]-(2S)-pyrrolidinylmethoxy]cyclohexanecarboxylic acid] | 1100 µg/mL (≈ 1550 µM) | 1100 µg/mL (≈ 1550 µM) | 4.6 nM | 12 nM |
| CN(C)C(=O)C1CCN([C@H]2C[C@@H](CO[C@H]3CC[C@H](C(=O)O)CC3)N(C(=O)Cc3cc(Cl)c(NC(=O)c4coc5ccccc45)cc3Cl)C2)CC1 [Example 107, Trans-4-[1-[[4-[(benzo[b]furan-3-ylcarbonyl)amino]-2,5-dichlorophenyl]acetyl]-(4S)-[4-(dimethylcarbamoyl)piperidin-1-yl]-(2S)-pyrrolidinylmethoxy]cyclohexanecarboxylic acid] | 1200 µg/mL (≈ 1650 µM) | 1200 µg/mL (≈ 1650 µM) | 1.8 nM | 7.6 nM |
| Cn1cc(C(=O)Nc2cc(F)c(CC(=O)N3C[C@@H](N4CC(C)(C)C4)C[C@H]3CO[C@H]3CC[C@H](C(=O)O)CC3)cc2Cl)c2ccccc21 [Example 14, Trans-4-[1-[[5-chloro-2-fluoro-4-[(1-methyl-1H-indol-3-ylcarbonyl)amino]phenyl]acetyl]-(4S)-(3,3-dimethylazetidin-1-yl)-(2S)-pyrrolidinylmethoxy]cyclohexanecarboxylic acid] | 1100 µg/mL (≈ 1680 µM) | 1000 µg/mL (≈ 1530 µM) |  |  |
| C[C@@H]1CN([C@H]2C[C@@H](CO[C@H]3CC[C@H](C(=O)O)CC3)N(C(=O)Cc3ccc(NC(=O)c4nccc5ccccc45)c(Cl)c3)C2)C[C@H](C)O1 [Example 86, Trans-4-[1-[[3-chloro-4-[(isoquinolin-1-ylcarbonyl)amino]phenyl]acetyl]-(4S)-(cis-2,6-dimethylmorpholin-4-yl)-(2S)-pyrrolidinylmethoxy]cyclohexanecarboxylic acid] | 1300 µg/mL (≈ 1960 µM) | 1200 µg/mL (≈ 1810 µM) | 4.5 nM | 27 nM |
| Cn1cc(C(=O)Nc2cc(Cl)c(CC(=O)N3C[C@@H](N4CC5CC4CN5C4CC4)C[C@H]3CO[C@H]3CC[C@H](C(=O)O)CC3)cc2Cl)c2ccccc21 (stereo partly drawn) [Example 164, Trans-4-[1-[[2,5-dichloro-4-[(1-methyl-1H-indol-3-ylcarbonyl)amino]phenyl]acetyl]-(4S)-[(1S,4S)-2-cyclopropyl-2,5-diazabicyclo[2.2.1]heptan-5-yl]-(2S)-pyrrolidinylmethoxy]cyclohexanecarboxylic acid] | 1000 µg/mL (≈ 1380 µM) | 1000 µg/mL (≈ 1380 µM) | 13 nM | 71 nM |
| CO[C@H]1CN([C@H]2C[C@@H](CO[C@H]3CC[C@H](C(=O)O)CC3)N(C(=O)Cc3cc(Cl)c(NC(=O)c4coc5ccccc45)cc3F)C2)C[C@@H]1OC [Example 53, Trans-4-[1-[[4-[(benzo[b]furan-3-ylcarbonyl)amino]-5-chloro-2-fluorophenyl]acetyl]-(4S)-[(3S,4S)-dimethoxypyrrolidin-1-yl]-(2S)-pyrrolidinylmethoxy]cyclohexanecarboxylic acid] | 1000 µg/mL (≈ 1460 µM) | 1000 µg/mL (≈ 1460 µM) | 2 nM | 11 nM |
| Cn1cc(C(=O)Nc2cc(Cl)c(CC(=O)N3C[C@@H](N4CC(C)(C)C4)C[C@H]3CO[C@H]3CC[C@H](C(=O)O)CC3)cc2Cl)c2ccccc21 [Example 15, Trans-4-[1-[[2,5-dichloro-4-[(1-methyl-1H-indol-3-ylcarbonyl)amino]phenyl]acetyl]-(4S)-(3,3-dimethylazetidin-1-yl)-(2S)-pyrrolidinylmethoxy]cyclohexanecarboxylic acid] | 1100 µg/mL (≈ 1640 µM) | 1100 µg/mL (≈ 1640 µM) |  |  |
| COc1cc(CC(=O)N2C[C@@H](N3CCN(CC(F)(F)F)CC3)C[C@H]2CO[C@H]2CC[C@H](C(=O)O)CC2)ccc1NC(=O)c1csc2ccccc12 [Example 133, Trans-4-[1-[[4-[(benzo[b]thiophen-3-ylcarbonyl)amino]-3-methoxyphenyl]acetyl]-(4S)-[4-(2,2,2-trifluoroethyl)piperazin-1-yl]-(2S)-pyrrolidinylmethoxy]cyclohexanecarboxylic acid] |  |  | 1.3 nM | 3.3 nM |
| CN(C)C1CCN([C@H]2C[C@@H](CO[C@H]3CC[C@H](C(=O)O)CC3)N(C(=O)Cc3cc(Cl)c(NC(=O)c4cn(C)c5ccccc45)cc3F)C2)CC1 [Example 109, Trans-4-[1-[[5-chloro-2-fluoro-4-[(1-methyl-1H-indol-3-ylcarbonyl)amino]phenyl]acetyl]-(4S)-[4-(N,N-dimethylamino)piperidin-1-yl]-(2S)-pyrrolidinylmethoxy]cyclohexanecarboxylic acid] |  |  | 3.6 nM | 5.2 nM |
| C[C@@H]1CN([C@H]2C[C@@H](CO[C@H]3CC[C@H](C(=O)O)CC3)N(C(=O)Cc3cc(Cl)c(NC(=O)c4c[nH]c5ccccc45)cc3Cl)C2)C[C@H](C)O1 [Example 89, Trans-4-[1-[[2,5-dichloro-4-[(1H-indol-3-ylcarbonyl)amino]phenyl]acetyl]-(4S)-(cis-2,6-dimethylmorpholin-4-yl)-(2S)-pyrrolidinylmethoxy]cyclohexanecarboxylic acid] |  |  | 0.96 nM | 2.3 nM |
| O=C(Nc1cc(F)c(CC(=O)N2C[C@@H](N3CCC(F)CC3)C[C@H]2CO[C@H]2CC[C@H](C(=O)O)CC2)cc1Cl)c1csc2ccccc12 [Example 100, Trans-4-[1-[[4-[(benzo[b]thiophen-3-ylcarbonyl)amino]-5-chloro-2-fluorophenyl]acetyl]-(4S)-(4-fluoropiperidin-1-yl)-(2S)-pyrrolidinylmethoxy]cyclohexanecarboxylic acid] |  |  | 0.91 nM | 3.9 nM |
| CCN1CCN([C@H]2C[C@@H](CO[C@H]3CC[C@H](C(=O)O)CC3)N(C(=O)Cc3cc(Cl)c(NC(=O)c4csc5ccccc45)cc3F)C2)CC1=O [Example 154, Trans-4-[1-[[4-[(benzo[b]thiophen-3-ylcarbonyl)amino]-5-chloro-2-fluorophenyl]acetyl]-(4S)-(4-ethyl-3-oxopiperazin-1-yl)-(2S)-pyrrolidinylmethoxy]cyclohexanecarboxylic acid] |  |  | 0.92 nM | 9.1 nM |
| CO[C@H]1CN([C@H]2C[C@@H](CO[C@H]3CC[C@H](C(=O)O)CC3)N(C(=O)Cc3ccc(NC(=O)c4nn(C)c5ccccc45)c(Cl)c3)C2)C[C@H]1OC [Example 62, Trans-4-[1-[[4-[(1-methyl-1H-indazol-3-ylcarbonyl)amino]-3-chlorophenyl]acetyl]-(4S)-(cis-3,4-dimethoxypyrrolidin-1-yl)-(2S)-pyrrolidinylmethoxy]cyclohexanecarboxylic acid] |  |  | 3.2 nM | 10 nM |
| Cn1cc(C(=O)Nc2cc(F)c(CC(=O)N3C[C@@H](N4CCN(C5CCCC5)CC4)C[C@H]3CO[C@H]3CC[C@H](C(=O)O)CC3)cc2Cl)c2ccccc21 [Example 142, Trans-4-[1-[[5-chloro-2-fluoro-4-[(1-methyl-1H-indol-3-ylcarbonyl)amino]phenyl]acetyl]-(4S)-[4-cyclopentylpiperazin-1-yl]-(2S)-pyrrolidinylmethoxy]cyclohexanecarboxylic acid] |  |  | 4.7 nM | 11 nM |
| CO[C@H]1CN([C@H]2C[C@@H](CO[C@H]3CC[C@H](C(=O)O)CC3)N(C(=O)Cc3cc(Cl)c(NC(=O)c4csc5ccccc45)cc3F)C2)C[C@H]1OC [Example 57, Trans-4-[1-[[4-[(benzo[b]thiophen-3-ylcarbonyl)amino]-5-chloro-2-fluorophenyl]acetyl]-(4S)-(cis-3,4-dimethoxypyrrolidin-1-yl)-(2S)-pyrrolidinylmethoxy]cyclohexanecarboxylic acid] |  |  | 1.4 nM | 6.2 nM |
| O=C(Nc1cc(F)c(CC(=O)N2C[C@@H](N3CCN(CC(F)(F)F)CC3)C[C@H]2CO[C@H]2CC[C@H](C(=O)O)CC2)cc1Cl)c1c[nH]c2ccccc12 [Example 131, Trans-4-[1-[[5-chloro-2-fluoro-4-[(1H-indol-3-ylcarbonyl)amino]phenyl]acetyl]-(4S)-[4-(2,2,2-trifluoroethyl)piperazin-1-yl]-(2S)-pyrrolidinylmethoxy]cyclohexanecarboxylic acid] |  |  | 1.1 nM | 1.8 nM |
| C[C@@H]1CN([C@H]2C[C@@H](CO[C@H]3CC[C@H](C(=O)O)CC3)N(C(=O)Cc3cc(Cl)c(NC(=O)c4c[nH]c5ccccc45)cc3F)C2)C[C@H](C)O1 [Example 90, Trans-4-[1-[[5-chloro-2-fluoro-4-[(1H-indol-3-ylcarbonyl)amino]phenyl]acetyl]-(4S)-(cis-2,6-dimethylmorpholin-4-yl)-(2S)-pyrrolidinylmethoxy]cyclohexanecarboxylic acid] |  |  | 1.2 nM | 2.4 nM |
| COc1cc(CC(=O)N2C[C@@H](N3CCN(CC(F)(F)F)CC3)C[C@H]2CO[C@H]2CC[C@H](C(=O)O)CC2)ccc1NC(=O)c1cn(C)c2ccccc12 [Example 135, Trans-4-[1-[[3-methoxy-4-[(1-methyl-1H-indol-3-ylcarbonyl)amino]phenyl]acetyl]-(4S)-[4-(2,2,2-trifluoroethyl)piperazin-1-yl]-(2S)-pyrrolidinylmethoxy]cyclohexanecarboxylic acid] |  |  | 1.7 nM | 4.4 nM |
| O=C(Nc1cc(Cl)c(CC(=O)N2C[C@@H](n3ccnc3)C[C@H]2CO[C@H]2CC[C@H](C(=O)O)CC2)cc1Cl)c1csc2ccccc12 [Example 68, Trans-4-[1-[[4-[(benzo[b]thiophen-3-ylcarbonyl)amino]-2,5-dichlorophenyl]acetyl]-(4S)-(imidazol-1-yl)-(2S)-pyrrolidinylmethoxy]cyclohexanecarboxylic acid] |  |  | 2.1 nM | 30 nM |

Reference: patent US8129366B2, “VLA-4 inhibitory drug” (Daiichi Sankyo Company, Limited, priority 2005, dated 2012)
